Data from patent publication US11220671B2, “Methods for the maturation of cardiomyocytes on amniotic fluid cell-derived ECM, cellular constructs, and uses for cardiotoxicity and proarrhythmic screening of drug compounds” (STEMBIOSYS, INC., priority 2019, dated 2022).
Where two headings read alike, the source gives them in different places.

Experiments:
[1] = tested on: mature cardiomyocytes (hiPSC-CMs) on AFC-ECM
Method: The cardiotoxicity and/or proarrhythmia testing can be conducted using any type of equipment suitable for measuring such activity. In some embodiments, the cellular constructs of monolayers of mature cardiomyocytes on AFC-ECM are prepared as described supra. After the maturation process (generally 7 days or less), the electrophysiology of each well is observed using a plate reader. A suitable voltage sensitive or calcium sensitive fluorescent dye is loaded into each well. Non-limiting voltage sensitive dyes include FluoVolt™ dye commercially available from ThermoFisher. In some embodiments, the plate reader can rely on a suitable high spatiotemporal CCD camera combined with suitable lighting, such as light emitting diodes (LEDs), of the appropriate wavelength to excite each dye. Such high spatiotemporal CCD cameras are commercially available from SciMeasure. In some embodiments, the camera image acquisition rate is greater than or equal to 150 frames per second. In some embodiments, the camera and lens combination are designed such that it allows visualization of all the wells of the multi-well plate simultaneously with sufficient resolution to observe action potential and calcium wave propagation. Each plate is centered under the camera system, lighting is switched on and camera acquisition is initiated and electrophysiological activity is recorded. Experiments are performed at about 37° C. After baseline readings are made, the drug to be tested is added to the wells and the effects are recorded. Spontaneous activity is recorded for a sufficient period of time to obtain images, e.g. at least 10 seconds. The images can be stored on a computer. Images are analyzed and action potential duration, conduction velocity, beat rate and activation patterns can be quantified using image analysis software. Visualization of electrical wave patterns is important to determine a drug compound's effect to cause potentially fatal arrhythmias, e.g., Torsades de Pointes (TdP). Thus, in addition to providing information on a compound's effect on spontaneous action potential duration, the methods disclosed herein can also provide information on impulse conduction velocity and activation pattern depending on the type of equipment used.
After the 7-day maturation process the electrophysiology of each well was observed using a plate reader using the following high throughput screen method. FluoVolt™ dye in Hanks Balanced Salt Solution was loaded into each well. A high spatiotemporal CCD camera (SciMeasure DaVinci camera) combined with light emitting diodes (LEDs) as shown in the schematic in FIG. 22. The camera and lens combination were designed such that it allowed visualization of all the wells of the 96-well plate simultaneously with sufficient resolution to observe action potential and calcium wave propagation. Each plate was centered under the camera system, lighting was switched on and camera acquisition was initiated and electrophysiological activity was recorded. Experiments were performed at about 37° C. Spontaneous activity was recorded for at least 10 seconds and images were stored on a computer. […] Images were analyzed and action potential duration, conduction velocity, beat rate and activation patterns were quantified using image analysis software.
The drugs were selected from the CiPA Initiative's list of compounds for validation and testing of CiPA and are classified as high risk, intermediate risk or low risk for causing fatal arrhythmias (TdPs) in patients.

[2] = CiPA list: high, intermediate or low risk for causing fatal arrhythmias (TdPs) in patients; cited from earlier work
[3] = mature cardiomyocytes on AFC-ECM, 96-well plates, plate reader, any arrhythmia detected over Dose 1-4
[4] = mature cardiomyocytes on AFC-ECM, 96-well plates, at 10 times the effective therapeutic plasma concentration

SMILES	APD90 Prolongation? @10X ETPC [1]	Arrhythmia Detected? [1]	Risk Category [2]	Arrhythmia Detected? [1, 3]	APD90 Prolongation? @10X ETPC [1, 4]
CCOC(=O)C1=C(C)NC(C)=C(C(=O)OC)C1c1cccc([N+](=O)[O-])c1 (stereo not drawn) [Nitrendipine]	No,	No	–	–	–
CC(C)COCC(CN(Cc1ccccc1)c1ccccc1)N1CCCC1 (stereo not drawn) [Bepridil]	Yes	Yes, Q	High	–	–
COc1ccc(CCN2CCC(Nc3nc4ccccc4n3Cc3ccc(F)cc3)CC2)cc1 [Astemizole]	Yes	Yes	–	–	–
C=C[C@H]1C[N@@]2CC[C@H]1C[C@@H]2[C@@H](O)c1ccnc2ccc(OC)cc12 [Quinidine]	Yes	–	–	Yes, EAD	–
CC/C(=C(\c1ccccc1)c1ccc(OCCN(C)C)cc1)c1ccccc1 [Tamoxifen]	No	No	–	–	–
O=c1[nH]c2ccccc2n1C1CCN(CCCC(c2ccc(F)cc2)c2ccc(F)cc2)CC1 [Pimozide]	No	Yes	–	–	–
O=C(CCCN1CC=C(n2c(=O)[nH]c3ccccc32)CC1)c1ccc(F)cc1 [Droperidol]	Yes	Yes, EAD	–	–	–
CN1CCN(CCCCN2C(=O)CN(/N=C/c3ccc(-c4ccc(Cl)cc4)o3)C2=O)CC1 [Azimilide]	Yes	Yes, EAD	High	–	–
COc1ccccc1OCC(O)CN1CCN(CC(=O)Nc2c(C)cccc2C)CC1 (stereo not drawn) [Ranolazine]	No	No	Low	–	–
CN1CCN(C2=Nc3cc(Cl)ccc3Nc3ccccc32)CC1 [Clozapine]	Yes	No	–	–	–
COc1cc(N)c(Cl)cc1C(=O)NC1CCN(CCCOc2ccc(F)cc2)CC1OC (stereo not drawn) [Cisapride]	No	Yes	Intermediate	–	–
COc1ccc([C@@H]2Sc3ccccc3N(CCN(C)C)C(=O)[C@@H]2OC(C)=O)cc1 [Diltiazem]	No, shortening	No	–	–	–
Cc1nc2n(c(=O)c1CCN1CCC(c3noc4cc(F)ccc34)CC1)CCCC2 [Risperidone]	–	No	–	–	–
COc1ccc(CCN(C)CCCC(C#N)(c2ccc(OC)c(OC)c2)C(C)C)cc1OC (stereo not drawn) [Verapamil]	No, Shortening	No	–	–	–
O=c1[nH]c2ccccc2n1CCCN1CCC(n2c(=O)[nH]c3cc(Cl)ccc32)CC1 [Domperidone]	Yes	Yes, TA	–	–	–
CCOC(=O)N1CCC(=C2c3ccc(Cl)cc3CCc3cccnc32)CC1 [Loratadine]	–	–	–	No	No
Cc1nccn1CC1CCc2c(c3ccccc3n2C)C1=O (stereo not drawn) [Ondansetron]	Yes	Yes, EAD	Intermediate	–	–
COc1cc2c(Nc3ccc(Br)cc3F)ncnc2cc1OCC1CCN(C)CC1 [Vandetanib]	Yes	Yes, EAD	High	–	–
COCCc1ccc(OCC(O)CNC(C)C)cc1 (stereo not drawn) [Metoprolol]	No	Yes,	–	–	–
CC(C)N(CCC(C(N)=O)(c1ccccc1)c1ccccn1)C(C)C (stereo not drawn) [Disopyramide]	Yes	Yes, EAD, TA	–	–	–
CC(C)NCC(O)c1ccc(NS(C)(=O)=O)cc1 (stereo not drawn) [D, I Sotalol]	–	–	High	Yes, EAD	Yes
CCCCCCCN(CC)CCCC(O)c1ccc(NS(C)(=O)=O)cc1 (stereo not drawn) [Ibutilide]	YeS	Yes, EAD	High	–	–
CN(CCOc1ccc(NS(C)(=O)=O)cc1)CCc1ccc(NS(C)(=O)=O)cc1 [Dofetilide]	Yes	Yes, EAD	–	–	–
CC(C)(C)c1ccc(C(O)CCCN2CCC(C(O)(c3ccccc3)c3ccccc3)CC2)cc1 (stereo not drawn) [Terfenadine]	Yes	No	–	–	–
Cc1cccc(C)c1OCC(C)N (stereo not drawn) [Mexiletine]	No	No	–	–	–
